Measured values published in patent publication US12404262B2 (priority 2021, dated 2025).
Where two headings read alike, the source gives them in different places. Each block holds one compound with its values, some of them ahead of it.

[1] = 0.1N HCl, 1.0% DMSO, 24-hour incubation at ambient temperature, maximum theoretical 100 μM, first value of the cell
[2] = 1×PBS buffer (pH 7.4), 1.0% DMSO, 24-hour incubation at ambient temperature, maximum theoretical 100 μM, second value of the cell

SMILES: CC(C)(C#Cc1ccc(-c2ccc(Cl)c3c(N(C(=O)OCC(=O)O)S(C)(=O)=O)nn(CC(F)(F)F)c23)c([C@H](Cc2cc(F)cc(F)c2)NC(=O)Cn2nc(C(F)(F)F)c3c2C(F)(F)[C@@H]2C[C@H]32)n1)S(C)(=O)=O [Compound 117, 2-(((4-chloro-7-(2-((S)-1-(2-((3bS,4aR)-5,5-difluoro-3-(trifluoromethyl)-3b,4,4a,5-tetrahydro-1H-cyclopropa[3,4]cyclopenta[1,2-c]pyrazol-1-yl)acetamido)-2-(3,5-difluorophenyl)ethyl)-6-(3-methyl-3-(methylsulfonyl)but-1-yn-1-yl)pyridin-3-yl)-1-(2,2,2-trifluoroethyl)-1H-indazol-3-yl)(methylsulfonyl)carbamoyl)oxy)acetic acid]
pH 2 solubility [1]: 9 μM
pH 7 solubility [2]: 10 μM

SMILES: CC(C)(C#Cc1ccc(-c2ccc(Cl)c3c(N(C(=O)OCCC(=O)O)S(C)(=O)=O)nn(CC(F)(F)F)c23)c([C@H](Cc2cc(F)cc(F)c2)NC(=O)Cn2nc(C(F)(F)F)c3c2C(F)(F)[C@@H]2C[C@H]32)n1)S(C)(=O)=O [Compound 121, 3-(((4-chloro-7-(2-((S)-1-(2-((3bS,4aR)-5,5-difluoro-3-(trifluoromethyl)-3b,4,4a,5-tetrahydro-1H-cyclopropa[3,4]cyclopenta[1,2-c]pyrazol-1-yl)acetamido)-2-(3,5-difluorophenyl)ethyl)-6-(3-methyl-3-(methylsulfonyl)but-1-yn-1-yl)pyridin-3-yl)-1-(2,2,2-trifluoroethyl)-1H-indazol-3-yl)(methylsulfonyl)carbamoyl)oxy)propanoic acid]
pH 2 solubility [1]: 1 μM
pH 7 solubility [2]: 21 μM

SMILES: CC(C)(C#Cc1ccc(-c2ccc(Cl)c3c(N(C(=O)OC(CCC(=O)O)CCC(=O)O)S(C)(=O)=O)nn(CC(F)(F)F)c23)c([C@H](Cc2cc(F)cc(F)c2)NC(=O)Cn2nc(C(F)(F)F)c3c2C(F)(F)[C@@H]2C[C@H]32)n1)S(C)(=O)=O [Compound 124, 4-(((4-chloro-7-(2-((S)-1-(2-((3bS,4aR)-5,5-difluoro-3-(trifluoromethyl)-3b,4,4a,5-tetrahydro-1H-cyclopropa[3,4]cyclopenta[1,2-c]pyrazol-1-yl)acetamido)-2-(3,5-difluorophenyl)ethyl)-6-(3-methyl-3-(methylsulfonyl)but-1-yn-1-yl)pyridin-3-yl)-1-(2,2,2-trifluoroethyl)-1H-indazol-3-yl)(methylsulfonyl)carbamoyl)oxy)heptanedioic acid]
pH 7 solubility: 2/83 μM
pH 2 solubility (pH 2): 2/83 μM

SMILES: CC(C)(C#Cc1ccc(-c2ccc(Cl)c3c(N(C(=O)O[C@H]4C[C@@H](NC(=N)N)C4)S(C)(=O)=O)nn(CC(F)(F)F)c23)c([C@H](Cc2cc(F)cc(F)c2)NC(=O)Cn2nc(C(F)(F)F)c3c2C(F)(F)[C@@H]2C[C@H]32)n1)S(C)(=O)=O [Compound 127, cis-3-guanidinocyclobutyl (4-chloro-7-(2-((S)-1-(2-((3bS,4aR)-5,5-difluoro-3-(trifluoromethyl)-3b,4,4a,5-tetrahydro-1H-cyclopropa[3,4]cyclopenta[1,2-c]pyrazol-1-yl)acetamido)-2-(3,5-difluorophenyl)ethyl)-6-(3-methyl-3-(methylsulfonyl)but-1-yn-1-yl)pyridin-3-yl)-1-(2,2,2-trifluoroethyl)-1H-indazol-3-yl)(methylsulfonyl)carbamate]
pH 2 solubility [1]: 8 μM
pH 7 solubility [2]: 1 μM

SMILES: CC(C)(C#Cc1ccc(-c2ccc(Cl)c3c(N(C(=O)O[C@H]4C[C@H](NC(=N)N)C4)S(C)(=O)=O)nn(CC(F)(F)F)c23)c([C@H](Cc2cc(F)cc(F)c2)NC(=O)Cn2nc(C(F)(F)F)c3c2C(F)(F)[C@@H]2C[C@H]32)n1)S(C)(=O)=O [Compound 128, trans-3-guanidinocyclobutyl (4-chloro-7-(2-((S)-1-(2-((3bS,4aR)-5,5-difluoro-3-(trifluoromethyl)-3b,4,4a,5-tetrahydro-1H-cyclopropa[3,4]cyclopenta[1,2-c]pyrazol-1-yl)acetamido)-2-(3,5-difluorophenyl)ethyl)-6-(3-methyl-3-(methylsulfonyl)but-1-yn-1-yl)pyridin-3-yl)-1-(2,2,2-trifluoroethyl)-1H-indazol-3-yl)(methylsulfonyl)carbamate]
pH 2 solubility [1]: 5 μM
pH 7 solubility [2]: 1 μM

More lines, now with the values ahead:

pH 2 solubility [1]: 1/1 μM
pH 7 solubility [2]: 1/1 μM
SMILES: CC(C)(C#Cc1ccc(-c2ccc(Cl)c3c(N(C(=O)O[C@H](C(=O)O)[C@H](O)C(=O)O)S(C)(=O)=O)nn(CC(F)(F)F)c23)c([C@H](Cc2cc(F)cc(F)c2)NC(=O)Cn2nc(C(F)(F)F)c3c2C(F)(F)[C@@H]2C[C@H]32)n1)S(C)(=O)=O [Compound 118, (2S,3S)-2-(((4-chloro-7-(2-((S)-1-(2-((3bS,4aR)-5,5-difluoro-3-(trifluoromethyl)-3b,4,4a,5-tetrahydro-1H-cyclopropa[3,4]cyclopenta[1,2-c]pyrazol-1-yl)acetamido)-2-(3,5-difluorophenyl)ethyl)-6-(3-methyl-3-(methylsulfonyl)but-1-yn-1-yl)pyridin-3-yl)-1-(2,2,2-trifluoroethyl)-1H-indazol-3-yl)(methylsulfonyl)carbamoyl)oxy)-3-hydroxysuccinic acid]

pH 2 solubility [1]: 1/1 μM
pH 7 solubility [2]: 1/1 μM
SMILES: CC(C)(C#Cc1ccc(-c2ccc(Cl)c3c(N(C(=O)O[C@@H](CC(=O)O)C(=O)O)S(C)(=O)=O)nn(CC(F)(F)F)c23)c([C@H](Cc2cc(F)cc(F)c2)NC(=O)Cn2nc(C(F)(F)F)c3c2C(F)(F)[C@@H]2C[C@H]32)n1)S(C)(=O)=O [Compound 119, (S)-2-(((4-chloro-7-(2-((S)-1-(2-((3bS,4aR)-5,5-difluoro-3-(trifluoromethyl)-3b,4,4a,5-tetrahydro-1H-cyclopropa[3,4]cyclopenta[1,2-c]pyrazol-1-yl)acetamido)-2-(3,5-difluorophenyl)ethyl)-6-(3-methyl-3-(methylsulfonyl)but-1-yn-1-yl)pyridin-3-yl)-1-(2,2,2-trifluoroethyl)-1H-indazol-3-yl)(methylsulfonyl)carbamoyl)oxy)succinic acid]

pH 2 solubility [1]: 1 μM
pH 7 solubility [2]: 9 μM
SMILES: C[C@@H](CC(=O)O)OC(=O)N(c1nn(CC(F)(F)F)c2c(-c3ccc(C#CC(C)(C)S(C)(=O)=O)nc3[C@H](Cc3cc(F)cc(F)c3)NC(=O)Cn3nc(C(F)(F)F)c4c3C(F)(F)[C@@H]3C[C@H]43)ccc(Cl)c12)S(C)(=O)=O [Compound 120, (S)-3-(((4-chloro-7-(2-((S)-1-(2-((3bS,4aR)-5,5-difluoro-3-(trifluoromethyl)-3b,4,4a,5-tetrahydro-1H-cyclopropa[3,4]cyclopenta[1,2-c]pyrazol-1-yl)acetamido)-2-(3,5-difluorophenyl)ethyl)-6-(3-methyl-3-(methylsulfonyl)but-1-yn-1-yl)pyridin-3-yl)-1-(2,2,2-trifluoroethyl)-1H-indazol-3-yl)(methylsulfonyl)carbamoyl)oxy)butanoic acid]
